Data reported in US9776989B2, “Chromone alkaloid dysoline for the treatment of cancer and inflammatory disorders” (Council of Scientific & Industrial Research, priority 2013, dated 2017).

Tests used:
HT1080 (fibrosarcoma) = assay: MTT cell viability assay, HT1080; format: cell-based; settings: 48 h treatment
Procedure: (§1) Anticancer activity of dysoline (1) along with rohitukine was evaluated using MTT cell viability assay on […] cancer cell lines viz. Colo205 (colon), HCT116 (colon), HT1080 (fibrosarcoma), NCIH322 (lung), A549 (lung), Molt-4 (leukemia) and HL60 (leukemia).
(§2) The cell were originated from The European Collection of Cell Cultures (ECACC, UK) and purchased through Sigma-Aldrich India.
(§3) The MTT assay was used to assess the effect of the test molecules on cell viability. Cell viability on eight cell lines viz. Colo205 (colon), HCT116 (colon), HT1080 (fibrosarcoma), NCIH322 (lung), A549 (lung), Molt-4 (leukemia) and HL60 (leukemia) was investigated. In each well of a 96-well plate, 3×10^3 cells were grown in 100 μL of medium. After 24 h, each test molecules were added to achieve a final concentration of 10 to 0.01 μmol/L, respectively. After 48 h of treatment, 20 μL of 2.5 mg/mL MTT (Organics Research, Inc.) solution in phosphate buffer saline was added to each well. After […], supernatant was removed and formazan crystals were dissolved in 200 μL of DMSO. Absorbance was then measured at 570 nm using an absorbance plate reader (Bio-Rad Microplate Reader). Data are expressed as the percentage of viable cells in treated relative to non-treated conditions. Each experiment was repeated thrice and data was expressed as mean±SD of three independent experiments (Mol. Cancer Ther. 2010, 9, 358-368).

A549 (lung) = assay: MTT cell viability assay, A549; format: cell-based; settings: Homo sapiens, 48 h treatment
Procedure: as §1, §2, §3

HL60 (leukemia) = assay: MTT cell viability assay, HL-60; format: cell-based; settings: Homo sapiens, HL-60 (leukemia), 48 h treatment
Procedure: as §1, §2, §3

Colo205 (colon) = assay: MTT cell viability assay, Colo205; format: cell-based; settings: Homo sapiens, COLO 205, 48 h treatment
Procedure: as §1, §2, §3

TNF-α = assay: Inhibition of TNF-α production in splenocytes (ELISA); format: cell-based, male Balb/c mice; settings: 72 h, Con A or LPS; for inhibition at 0.01 µM / inhibition at 0.1 µM / inhibition at 1 µM / inhibition at 10 µM / inhibition at 100 µM: Mus musculus, Splenocyte, read-out: Percentage inhibition of cytokine production, TNF-α
Procedure: (§4) Anti-inflammatory activity of dysoline (1) was evaluated by inhibiting production of pro-inflammatory cytokines such as tumor necrosis factor-alpha (TNF-α) and interleukin-6 (IL-6). […] The TNF-α inhibition activity of dysoline was compared with rohitukine.
(§5) Splenocytes of male Balb/c mice were seeded into three to four wells of a 96-well flat-bottom microtiter plate (Nunc) at 2×10^6 cells/ml. Cells were incubated with different concentrations of dysoline (0.01 μM-100 μM) along with Con A (2.5 μg/well) or LPS (1 μg/ml) for 72 h at 37° C. with 5% CO2 in CO2 incubator. The culture supernatants were harvested and the measurement of cytokines (TNF-α and IL-6) in the culture supernatants was carried out using commercial kits as per manufacturer's instructions by using ELISA kits (R&D, USA) (Life Sci. 2007, 80, 1525-1538; J. Immunol. Methods 1983, 65, 55-63).

Stability = format: physicochemical
NCIH322 (lung) = assay: MTT cell viability assay, NCIH322; format: cell-based; settings: NCI-H322, 48 h treatment
Procedure: as §1, §2, §3

HCT116 (colon) = assay: MTT cell viability assay, HCT116; format: cell-based; settings: Homo sapiens, HCT-116, 48 h treatment
Procedure: as §1, §2, §3

IL-6 = assay: Inhibition of IL-6 production in splenocytes (ELISA); format: cell-based, male Balb/c mice; settings: Splenocyte, mouse splenocytes, Con A or LPS, 72 h, read-out: Percentage inhibition of cytokine production, IL-6
Procedure: as §4, §5

Water solubility = format: physicochemical
Molt-4 (leukemia) = assay: MTT cell viability assay, MOLT-4; format: cell-based; settings: Homo sapiens, 48 h treatment
Procedure: as §1, §2, §3

[1] = test system: HCT-116 colon cancer cells; settings: cited from earlier work
[2] = test system: HL-60 promyelocytic leukemia; settings: human HL-60 promyelocytic leukemia; cited from earlier work

Row | IC50 (HT1080 (fibrosarcoma); Homo sapiens, HT-1080, 48 h) [µM] | IC50 (A549 (lung)) [µM] | IC50 (HL60 (leukemia)) [µM] | IC50 (Colo205 (colon)) [µM] | IC50 (HCT116 (colon)) [µM] | IC50 (Molt-4 (leukemia)) [µM] | Structure (SMILES) | inhibition at 0.01 µM (TNF-α) [%] | inhibition at 0.1 µM (TNF-α) [%] | inhibition at 1 µM (TNF-α; 1 μM) [%] | inhibition at 10 µM (TNF-α) [%] | inhibition at 100 µM (TNF-α) [%] | IC50 (NCIH322 (lung)) [µM] | inhibition at 0.01 µM (IL-6) [%] | inhibition at 0.1 µM (IL-6) [%] | inhibition at 1 µM (IL-6) [%] | inhibition at 10 µM (IL-6) [%] | inhibition at 100 µM (IL-6) [%] | other results
1 | 0.21 | > 10 | 10 | > 10 | > 10 | > 10 | Cc1cc(=O)c2c(O)c(C3CCN(C)CC3O)c(O)cc2o1 (centres unmarked) [Dysoline (1), 5,7-dihydroxy-6-(3-hydroxy-1-methylpiperidin-4-yl)-2-methyl-4H-chromen-4-one] | 28 | 47 | 53 | 54 | 56 | > 10 | 72 | 83 | 83 | 89 | 99 | stability (Stability): stable; water solubility (Water solubility): good water solubility; melting point: 310 to 315 °C
2 | < 10 | > 10 | 10 | > 10 | > 10 | > 10 | Cc1cc(=O)c2c(O)cc(O)c([C@H]3CCN(C)C[C@H]3O)c2o1 [Rohitukine, 5,7-dihydroxy-2-methyl-8-[4-(3-hydroxy-1-methyl)-piperidinyl]-4H-1-benzopyran-4-one] | 18 | 22 | 32 | 32 | 47 | > 10 | 10 | 30 | 80 | 88 | 89 | IC50 (HT1080 (fibrosarcoma)): > 10 µM; cytotoxicity [1]: moderate cytotoxicity; Percentage inhibition of cytokine production, TNF-α (TNF-α; 1 μM, mouse splenocytes): 28%; cytotoxicity [2]: moderate cytotoxicity
